From patent US6355799B1, “Substituted benzene compounds, process for their preparation, and herbicidal and defoliant compositions containing them” (ISK Americas Incorporated, priority 1997, dated 2002)

Assays:
Assay type in all cases: in vivo
[1] = tested on: redroot pigweed (Amaranthus retroflexus, AMARE); experiment: Pre-emerge test, greenhouse herbicide activity screening; settings: phytotoxicity rating 0-100, 14 days after application
Outline: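 Plants grown in 10 cm pots of sandy loam mix received acetone-dissolved compounds through a moving flat-fan nozzle. Doses ranged from 15 to 1000 g ai/ha. Pre-emerge pots were seeded one day earlier, post-emerge pots 8–21 days earlier. Fourteen days on, each pot was graded 0–100 for damage.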

[2] = tested on: barnyardgrass (Echinochloa crus-galli, ECHCG); experiment: as above; settings: phytotoxicity rating 0-100, 14 days after application
Outline: (§1)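 Herbicidal damage is scored 0 (none) to 100 (complete plant death) two weeks after a simulated field spray. Rates span 15–1000 g ai/ha, delivered in acetone at 187 l/ha. For post-emergence treatments, plants have 2–3 leaves and the spray carries 0.25% v/v non-ionic surfactant.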

[3] = tested on: green foxtail (Setaria viridis, SETVI); experiment: as above; settings: phytotoxicity rating 0-100, 14 days after application
Outline: as §1

[4] = tested on: ivyleaf morningglory (Ipomoea hederacea, IPOHE); experiment: as above; settings: phytotoxicity rating 0-100, 14 days after application
Outline: as §1

[5] = tested on: johnsongrass (Sorghum halepense, SORHA); experiment: as above; settings: phytotoxicity rating 0-100, 14 days after application
Outline: as §1

[6] = tested on: lambsquarters (Chenopodium album, CHEAL); experiment: as above; settings: phytotoxicity rating 0-100, 14 days after application
Outline: as §1

[7] = tested on: large crabgrass (Digitaria sanguinalis, DIGSA); experiment: as above; settings: phytotoxicity rating 0-100, 14 days after application
Outline: as §1

[8] = tested on: sicklepod (Cassia obtusifolia, CASOB); experiment: as above; settings: phytotoxicity rating 0-100, 14 days after application
Outline: as §1

[9] = tested on: velvetleaf (Abutilon theophrasti, ABUTH); experiment: as above; settings: phytotoxicity rating 0-100, 14 days after application
Outline: as §1

[10] = tested on: field corn (Zea mays L., var. Dekalb 535, CORN); experiment: Pre-emerge test, crop safety; settings: crop damage rating 0-100, 14 days after application
Outline: (§2)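 Rating: 0–100 visual injury, 14 DAA. Application: acetone, 187 l/ha, 15–1000 g ai/ha, flat-fan track sprayer with nozzle 40–45 cm above soil or canopy. Post-emerge runs used 0.25% v/v surfactant on 2–3 leaf plants.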

[11] = tested on: upland rice (Oryza sp., var. Tebonnet, RICE); experiment: Pre-emerge test, crop safety; settings: crop damage rating 0-100, 14 days after application
Outline: as §2

[12] = tested on: barnyardgrass (Echinochloa crus-galli, ECHCG); experiment: Post-emerge test, greenhouse herbicide activity screening; settings: post-emerge, 14 days after application, rating scale 0-100
Outline: (§3)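 Compounds in acetone were track-sprayed at 187 l/ha, 15–1000 g ai/ha, onto sandy loam pots. Pre-emerge seeds were sown one day before spraying, with surface watering afterwards. Post-emerge plants were at the 2–3 leaf stage and sprayed with 0.25% v/v non-ionic surfactant. Injury was rated 0–100 at 14 days.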

[13] = tested on: green foxtail (Setaria viridis, SETVI); experiment: as above; settings: post-emerge, 14 days after application, rating scale 0-100
Outline: as §3

[14] = tested on: ivyleaf morningglory (Ipomoea hederacea, IPOHE); experiment: as above; settings: post-emerge, 14 days after application, rating scale 0-100
Outline: as §3

[15] = tested on: johnsongrass (Sorghum halepense, SORHA); experiment: as above; settings: post-emerge, 14 days after application, rating scale 0-100
Outline: as §3

[16] = tested on: lambsquarters (Chenopodium album, CHEAL); experiment: as above; settings: post-emerge, 14 days after application, rating scale 0-100
Outline: as §3

[17] = tested on: large crabgrass (Digitaria sanguinalis, DIGSA); experiment: as above; settings: post-emerge, 14 days after application, rating scale 0-100
Outline: as §3

[18] = tested on: redroot pigweed (Amaranthus retroflexus, AMARE); experiment: as above; settings: post-emerge, 14 days after application
Outline: as §3

[19] = tested on: sicklepod (Cassia obtusifolia, CASOB); experiment: as above; settings: post-emerge, 14 days after application, rating scale 0-100
Outline: as §3

[20] = tested on: velvetleaf (Abutilon theophrasti, ABUTH); experiment: as above; settings: post-emerge, 14 days after application, rating scale 0-100
Outline: as §3

[21] = tested on: field corn (Zea mays L., var. Dekalb 535, CORN); experiment: Post-emerge test, crop safety; settings: post-emerge, 14 days after application, rating scale 0-100
Outline: as §1

[22] = tested on: upland rice (Oryza sp., var. Tebonnet, RICE); experiment: Post-emerge test, crop safety; settings: post-emerge, 14 days after application, rating scale 0-100
Outline: as §1

## COc1c(Cl)cc(F)c(-n2c(=O)cc(C(F)(F)F)n(C)c2=O)c1NC(=O)OCc1ccc(F)cc1 [4-7]
[1]; 63 g ai/ha
  Pre-emerge Herbicidal Activity AMARE: 100
[1]; 250 g ai/ha
  Pre-emerge Herbicidal Activity AMARE: 100
[2]; 63 g ai/ha
  Pre-emerge Herbicidal Activity ECHCG: 70
[2]; 250 g ai/ha
  Pre-emerge Herbicidal Activity ECHCG: 90
[3]; 63 g ai/ha
  Pre-emerge Herbicidal Activity SETVI: 100
[3]; 250 g ai/ha
  Pre-emerge Herbicidal Activity SETVI: 100
[4]; 63 g ai/ha
  Pre-emerge Herbicidal Activity IPOHE: 80
[4]; 250 g ai/ha
  Pre-emerge Herbicidal Activity IPOHE: 100
[5]; 63 g ai/ha
  Pre-emerge Herbicidal Activity SORHA: 80
[5]; 250 g ai/ha
  Pre-emerge Herbicidal Activity SORHA: 95
[6]; 63 g ai/ha
  Pre-emerge Herbicidal Activity CHEAL: 100
[6]; 250 g ai/ha
  Pre-emerge Herbicidal Activity CHEAL: 100
[7]; 63 g ai/ha
  Pre-emerge Herbicidal Activity DIGSA: 100
[7]; 250 g ai/ha
  Pre-emerge Herbicidal Activity DIGSA: 100
[8]; 63 g ai/ha
  Pre-emerge Herbicidal Activity CASOB: 70
[8]; 250 g ai/ha
  Pre-emerge Herbicidal Activity CASOB: 100
[9]; 63 g ai/ha
  Pre-emerge Herbicidal Activity ABUTH: 100
[9]; 250 g ai/ha
  Pre-emerge Herbicidal Activity ABUTH: 100
[10]; 63 g ai/ha
  Pre-emerge Herbicidal Activity CORN: 60
[10]; 250 g ai/ha
  Pre-emerge Herbicidal Activity CORN: 95
[11]; 63 g ai/ha
  Pre-emerge Herbicidal Activity RICE: 70
[11]; 250 g ai/ha
  Pre-emerge Herbicidal Activity RICE: 100
[12]; 63 g ai/ha
  phytotoxicity rating ECHCG: 50
[12]; 250 g ai/ha
  phytotoxicity rating ECHCG: 100
[13]; 63 g ai/ha
  phytotoxicity rating SETVI: 70
[13]; 250 g ai/ha
  phytotoxicity rating SETVI: 100
[14]; 63 g ai/ha
  phytotoxicity rating IPOHE: 100
[14]; 250 g ai/ha
  phytotoxicity rating IPOHE: 100
[15]; 63 g ai/ha
  phytotoxicity rating SORHA: 90
[15]; 250 g ai/ha
  phytotoxicity rating SORHA: 90
[16]; 63 g ai/ha
  phytotoxicity rating CHEAL: 100
[16]; 250 g ai/ha
  phytotoxicity rating CHEAL: 100
[17]; 63 g ai/ha
  phytotoxicity rating DIGSA: 40
[17]; 250 g ai/ha
  phytotoxicity rating DIGSA: 90
[18]; 63 g ai/ha, rating scale 0-100 (0 no damage, 100 complete death)
  phytotoxicity rating AMARE: 100
[18]; 250 g ai/ha, rating scale 0-100
  phytotoxicity rating AMARE: 100
[19]; 63 g ai/ha
  phytotoxicity rating CASOB: 100
[19]; 250 g ai/ha
  phytotoxicity rating CASOB: 100
[20]; 63 g ai/ha
  phytotoxicity rating ABUTH: 100
[20]; 250 g ai/ha
  phytotoxicity rating ABUTH: 100
[21]; 63 g ai/ha
  phytotoxicity rating CORN (crop damage): 90
[21]; 250 g ai/ha
  phytotoxicity rating CORN (crop damage): 100
[22]; 63 g ai/ha
  phytotoxicity rating RICE (crop damage): 65
[22]; 250 g ai/ha
  phytotoxicity rating RICE (crop damage): 90
